Several values for one entry are separate records, joined by “and”; a condition that tells them apart may be missing. Equal values may be shown once. Blank lines part the entries; values can stand above or below the substance they belong to. No end group written: not given here.
Key:
[1] = tested on: TWEAK-Fn14 signalling pathway, BRV5 cells; experiment: Cell-based screening of individual peptides, gene expression microarray in TWEAK-stimulated BRV5 cells; set-up: species or system human; conditions: 6 h; for BIRC2 mRNA expression (normalized to NARS2) / HSP90B1 mRNA expression (normalized to NARS2) / IL6 mRNA expression (normalized to NARS2) / JUN mRNA expression (normalized to NARS2) / MAP4K4 mRNA expression (normalized to NARS2) / MAPK14 mRNA expression (normalized to NARS2) / NFKB2 mRNA expression (normalized to NARS2) / TNFRSF12A mRNA expression (normalized to NARS2) / TRAF2 mRNA expression (normalized to NARS2): 450 µM
Description: Pool 1 and 5 were therefore deconstructed to assess the effect of individual peptides and their activity on same cell-based screening. Pools 1 and 5 were composed of peptides 45, 46, 42, 3, 49, 11, and 13; and of peptides 1, 9, 30, 35, 41, 43, 7, and 14, respectively. As before, and shown in Figure 4B, the level of expression of probe genes on TWEAK-stimulated (T) BRV5 cells is overall higher than on non-stimulated (NT) one. […] The structural model of peptides 43, 30, 35 and 49 bound to TWEAK can be seen in Figure 5 and Supplementary Materials Figures S4–S6, respectively.
Three different cell lines were used in this study: BRV5, MDA-MB 435 (435-P), and HT29. The BRV5 is a highly metastatic brain cell line, obtained in one of our laboratories by primary culture from a brain of a nude mouse inoculated with human 435-Br1 brain metastatic cells, as previously described and used as a model to test the peptides in cell cultures. […] The triple negative 435-P cell line is a useful human breast cancer model that expresses both epithelial and melanocytic markers, and was included as the parental cell from which 435-Br1 metastatic variant was initially originated (both cell lines kindly provided by Dr Fabra at IDIBELL Institute, Hospitalet de Llobregat, Spain). Finally, HT29 human colon carcinoma cells obtained from the European Type Culture Collection (ECACC 91072201) were used as a positive control of TWEAK dependent Fn14 over-expressing cells to evaluate TWEAK-Fn14 axis of brain metastatic variants.
Appropriate cell culture conditions were established as the controls needed in the expression of genes with and without peptides and with and without TWEAK activation, both as pools and individually (see Supplementary Materials Figure S2). The protocol started with the seeding of 125,000 cells/well in 500 µL of culture media supplemented with 10% fetal bovine serum (CM+FBS10%) in 24-well dishes for 24 h before removing FBS (CM-FBS). After overnight starvation in CM-FBS culture, different peptide treatment conditions (at final concentration of 450 µM) were established in the presence or absence of TWEAK (25 ng/mL final concentration) (Peprotech EC, Ltd., London, UK). Some cells were treated with peptides at a single, unique, initial dose (time 0) while other were treated with repeated doses to account for the effect cell-culture degradation. These include a repeated treatment every hour (i.e., […]), every two hours (time 0, 2, and 4) and every three hours (time 0 and 3)—see Supplementary Materials Figure S2 for diagrammatic depiction. At time 6 (after six hours) cells were lysed and RNA extracted for transcriptomic analyses (see next). Cell were culture for six hours as this was the time needed to achieve the highest upregulation of the TWEAK-Fn14 axis upon TWEAK treatment as shown in previous time-course RT-PCR experiments (see Figure 2).
RNA from cells was extracted 6 h after treatments by direct lysis on the well. The RNeasy Micro kit (Qiagen, Hilden, Germany) was used to isolate total RNA from cell lysate following manufacturer’s protocols including an additional step of digestion with DNase I (Qiagen, Hilden, Germany). Total RNA concentration was measured in a NanoDrop 1000 spectrophotometer (Thermo Scientific, Waltham, MA, USA). The RNA extracted from treated and untreated cells (see above) was used as a proxy for gene expression.
The quantitative RT-PCR was performed using Fluidigm Dynamic Array FlexSix array with the specific primers for gene expression (Delta Genes Assays, Wet lab tested on Dynamic Array IFC) designed to RefSeq for detection by pPCR EvaGreen assay (Dynamic Array FlexSix, Fluidigm Corporation). Each Flex Six IFC has a total of six independent partitions. Each partition has a 12 × 12 format (12 assay inlets and 12 sample inlets) and will be run independently as a separate experimental run. […]

human His6-TWEAK protein = biological target: T1, human His6-TWEAK protein (Homo sapiens, UniProt O43508); experiment: SPR binding of peptides to immobilized His6-TWEAK; conditions: 25 °C, 1:1 Langmuir global fit, representative of at least three independent experiments
T1 construct: purchased R&D Systems
T1 sequence (O43508 97-249 limits assumed): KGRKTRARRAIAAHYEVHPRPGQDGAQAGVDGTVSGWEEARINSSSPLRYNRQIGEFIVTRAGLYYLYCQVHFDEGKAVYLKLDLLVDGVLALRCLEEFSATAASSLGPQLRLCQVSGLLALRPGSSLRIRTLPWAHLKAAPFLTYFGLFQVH
Description: SPR biosensor interaction analysis, a label-free screening approach, was used for real-time monitoring of the kinetics and affinity of peptide hits to TWEAK previously identified by cell-based screening. Peptides from pools 1 and 5 were selected both as positive (49, 30, 35 and 43) and negative hits (1 and 42). For our purposes, TWEAK was chosen as ligand, while peptides were chosen as analytes and passed across ligand-derivatized surface. Nitrilotriacetic acid-coated sensor chips (NTA chip) and a coupling approach that results in the capture of a His6-protein in a non-random orientation by the His6 epitope prior to direct free amine-based covalent coupling was used for histidine-tagged TWEAK immobilization.
After chip validation, peptides selected on our cell-based microarray screening were tested.
For each titration, a zero-analyte surface as a control was subtracted from test sensorgram as well as non-specific binding to the blank flow cell without protein; and the chip surface was regenerated in order to remove any remaining analyte. The black curves show the experimental data, while the overlaid red lines represent a global fit of the entire data set to a 1:1 Langmurian interaction model. The fitting process provided both kinetic association and dissociation rate constants (Ka and Kd), as well as equilibrium dissociation constant (KD) values indicated in Figure 6.
Binding assays were performed at 25 °C in a Biacore 3000 instrument (GE Healthcare, Uppsala, Sweden) using nitrilotriacetic (NTA) sensor chips (GE Healthcare) and HBS-EP (0.01 M HEPES pH 7.4, 0.15 M NaCl, 3 mM EDTA, 0.005 % v/v Surfactant P20) as running buffer. Histidine-tagged human TWEAK (His6-TWEAK) protein (R&D Systems, Minneapolis, MN, USA) was covalently immobilized on the sensor surface using a capture coupling method. Briefly, the NTA surface was first stabilized by injection of regeneration buffer (20 μL EDTA-containing running buffer at 20 μL/min) followed by Ni^2+ binding to the surface (40 μL of 500 μM NiCl2 in running buffer at 20 μL/min). The carboxymethyl dextran surface was then activated for primary amine coupling by injecting coupling solution (30 μL of a 1:1 N-hydroxysuccinimide (NHS)/1-ethyl-3-[3-(dimethylamino)-propyl]carbodiimide hydrochloride (EDC) mixture at 5 μL/min). His6-TWEAK protein in pH 7.4 running buffer was then injected over the surface (60 μL of 10 μg/mL His6-TWEAK at 5 μL/min). To block uncoupled primary amines on the sensor surface, ethanolamine was passed over the surface (35 μL 1M ethanolamine at 5 μL/min). Ligand surfaces were finally conditioned with a 20 µL injection of regeneration solution containing 350 mM EDTA at 20 μL/min. Immobilization levels ranged from 1500 to 7000 resonance units (RUimmob) to test different ligand densities. A blank flow cell on the chip was created by simple injection of 20 μL of regeneration buffer injected over the sensor surface.
Binding experiments using a monoclonal anti-TWEAK antibody (Abcam ref. 199405, Cambridge, UK) were run to ascertain adequate functionalization of the immobilized surface. Selected synthetic TWEAK-Fn14 inhibitory peptides at two-fold serial dilutions from 800 µM to 0 µM in running buffer were flown over the chip for 5 min at 35 µL/min. The dissociation phase was monitored for 10 min at the same flow rate and followed by a regeneration step with 10 µL of 18 mM NaOH. Specific binding responses for each channel were obtained by double referencing; subtracting non-specific binding to the blank flow cell plus an internal reference standard, namely buffer injection response. Each sample was run in triplicate. The experimental data were fitted to a 1:1 Langmuir binding model by the BIAevaluation software version 4.1 (GE Healthcare, Uppsala, Sweden).

[2] = individual peptides, BRV5 + TWEAK, mean of replicate columns
[3] = individual peptides, BRV5 + TWEAK, replicate column 1
[4] = individual peptides, BRV5 + TWEAK, replicate column 2
[5] = individual peptides, BRV5 + TWEAK, normalized to NARS2, listed as P3

Substance: TKGGGTADA [Peptide 3]
regulation of probe genes by individual peptides ([1]; BRV5 + TWEAK 25 ng/mL, peptides 450 µM): induced a higher level of expression of the gene
BIRC2 mRNA expression (normalized to NARS2) [1, 2]: 0.7197
HSP90B1 mRNA expression (normalized to NARS2) [1, 2]: 3.909
IL6 mRNA expression (normalized to NARS2) [1, 2]: 0.003239
JUN mRNA expression (normalized to NARS2) [1, 2]: 0.1441
MAP4K4 mRNA expression (normalized to NARS2) [1, 2]: 0.2389
MAPK14 mRNA expression (normalized to NARS2) [1, 2]: 0.2205
NFKB2 mRNA expression (normalized to NARS2) [1, 2]: 0.05335
TNFRSF12A mRNA expression (normalized to NARS2) [1, 2]: 0.03024
TRAF2 mRNA expression (normalized to NARS2) [1, 2]: 0.009427
BIRC2 mRNA expression (normalized to NARS2) [1, 3]: 0.6856
HSP90B1 mRNA expression (normalized to NARS2) [1, 3]: 3.773
IL6 mRNA expression (normalized to NARS2) [1, 3]: 0.004016
JUN mRNA expression (normalized to NARS2) [1, 3]: 0.1498
MAP4K4 mRNA expression (normalized to NARS2) [1, 3]: 0.2356
MAPK14 mRNA expression (normalized to NARS2) [1, 3]: 0.2165
NFKB2 mRNA expression (normalized to NARS2) [1, 3]: 0.05516
TNFRSF12A mRNA expression (normalized to NARS2) [1, 3]: 0.03211
TRAF2 mRNA expression (normalized to NARS2) [1, 3]: 0.009734
BIRC2 mRNA expression (normalized to NARS2) [1, 4]: 0.7537
HSP90B1 mRNA expression (normalized to NARS2) [1, 4]: 4.045
IL6 mRNA expression (normalized to NARS2) [1, 4]: 0.002462
JUN mRNA expression (normalized to NARS2) [1, 4]: 0.1383
MAP4K4 mRNA expression (normalized to NARS2) [1, 4]: 0.2421
MAPK14 mRNA expression (normalized to NARS2) [1, 4]: 0.2245
NFKB2 mRNA expression (normalized to NARS2) [1, 4]: 0.05153
TNFRSF12A mRNA expression (normalized to NARS2) [1, 4]: 0.02838
TRAF2 mRNA expression (normalized to NARS2) [1, 4]: 0.00912
BIRC2 expression Z-Score [1, 5]: 1.1157 and 1.116
HSP90B1 expression Z-Score [1, 5]: 2.9702 and 2.97
IL6 expression Z-Score [1, 5]: 1.1687 and 1.169
JUN expression Z-Score [1, 5]: 0.5369
MAP4K4 expression Z-Score [1, 5]: 1.3444 and 1.344
MAPK14 expression Z-Score [1, 5]: 0.3511
NFKB2 expression Z-Score [1, 5]: 1.2258 and 1.226
TNFRSF12A expression Z-Score [1, 5]: 1.1044 and 1.104
TRAF2 expression Z-Score [1, 5]: -0.4866

kon (human His6-TWEAK protein; HBS-EP pH 7.4, Biacore 3000, NTA chip, read-out: ka): 20.5 M⁻¹ s⁻¹
Kd (human His6-TWEAK protein; figure 6, HBS-EP pH 7.4, 6.25 µM to 800 µM peptide): 173 µM
Substance: TTDGSTGDDLQA-NH2 [Peptide 43]

Reference: paper PMC7866087, “Evaluation of Computationally Designed Peptides against TWEAK, a Cytokine of the Tumour Necrosis Factor Ligand Family” (International Journal of Molecular Sciences, 2021)
